Test results taken from patent publication US20120270844A1, “METHODS FOR TREATING ALZHEIMER'S DISEASE” (aFRAXis, Inc., priority 2009, published 2012).

Experiments:
[1] = target: PAK4 (Homo sapiens, UniProt O96013); assay: Z'Lyte fluorescence-based (FRET) PAK kinase assay, PAK4; format: biochemical; conditions: Table 1 of Example 29 (own compound numbering); 5 μM ATP
Experimental: (§1) A fluorescence-based assay format is used to determine IC50 values of test compounds in vitro. Purified PAK kinase is incubated with ATP, and a test compound at various concentrations and a substrate peptide containing two fluorophores. In a second step, the reaction mix is incubated with a site-specific protease that cleaves non-phosphorylated bat not phosphorylated substrate peptide, disrupting the FRET signal generated by the two fluorophores in the cleaved peptide (Z′Lyte™ Kinase assay platform; Life Technologies).
(§2) Reagents: 50 mM HEPES, pH 7.5; 0.01% BRIJ-35; 10 nM MgCl1; 1 mM EGTA, 2 uM substrate peptide Ser/Thr20 (proprietary Life Technologies Sequence), PAK enzyme [2.42-30.8 ng for PAK1, 0.29-6 ng for PAK2, 1.5-20 ng for PAK3 and 0.1-0.86 ng for PAK4; actual enzyme amounts depend on lot activity of the enzyme preparation]
(§3) Test compounds are dissolved in DMSO at various concentrations; the final DMSO concentration in the assay reaction is 1%.
(§4) ATP concentration at Kin apparent is used in the assay [50 ┌M ATP for PAK1 assay, 75 ┌M ATP for PAK2 assay, 100 μM ATP for PAK3 assay, 5 μM ATP for PAK4 assay] in a total assay volume of 10 μl. Assay reactions are incubated at room temperature for 1 hr. Following the kinase reaction, 5 μl of 1:256 dilution of development solution A (Life Technologies) is added and the reaction mix is incubated for an additional 1 hr at room temperature.
(§5) Plates are analyzed in a standard fluorescence plate reader (Tecan or equivalent) using an excitation wavelength of 400 nn and emission wavelengths of 445 nm and 520 nm.
(§6) Inhibition of kinase reaction is determined by emission ratio=emission@445 nm/emission@520 nm
as §1, with “non-phosphorylated but” for “non-phosphorylated bat”, “peptide (Z'Lyte™” for “peptide (Z′Lyte™”, “assay platform” for “assay platform;”
as §2, with “mM MgCl2;” for “nM MgCl1;”
as §4, with “at Km” for “at Kin”, “[50 μMATP” for “[50 ┌M ATP”, “75 µM” for “75 ┌M”, “[…]” for “10 μl.”, “kinase reaction.” for “kinase reaction,”, “[…]” for “5 μl”
(§7) Plates are analyzed in a standard fluorescence plate reader (Teem or equivalent) using an excitation wavelength of 400 nm and emission wavelengths of 445 nm and 520 nm.

[2] = target: PAK1 (Homo sapiens, UniProt Q13153); assay: Z'Lyte fluorescence-based (FRET) PAK kinase assay, PAK1; format: biochemical; conditions: Table 1 of Example 29 (own compound numbering); 50 μM ATP
Experimental: as §1, §2, §3, §4, §5, §6
as §1, with “non-phosphorylated but” for “non-phosphorylated bat”, “peptide (Z'Lyte™” for “peptide (Z′Lyte™”, “assay platform” for “assay platform;”
as §2, with “mM MgCl2;” for “nM MgCl1;”
as §4, with “at Km” for “at Kin”, “[50 μMATP” for “[50 ┌M ATP”, “75 µM” for “75 ┌M”, “[…]” for “10 μl.”, “kinase reaction.” for “kinase reaction,”, “[…]” for “5 μl”
as §7

Chain of PAK1 (Q13153 whole entry): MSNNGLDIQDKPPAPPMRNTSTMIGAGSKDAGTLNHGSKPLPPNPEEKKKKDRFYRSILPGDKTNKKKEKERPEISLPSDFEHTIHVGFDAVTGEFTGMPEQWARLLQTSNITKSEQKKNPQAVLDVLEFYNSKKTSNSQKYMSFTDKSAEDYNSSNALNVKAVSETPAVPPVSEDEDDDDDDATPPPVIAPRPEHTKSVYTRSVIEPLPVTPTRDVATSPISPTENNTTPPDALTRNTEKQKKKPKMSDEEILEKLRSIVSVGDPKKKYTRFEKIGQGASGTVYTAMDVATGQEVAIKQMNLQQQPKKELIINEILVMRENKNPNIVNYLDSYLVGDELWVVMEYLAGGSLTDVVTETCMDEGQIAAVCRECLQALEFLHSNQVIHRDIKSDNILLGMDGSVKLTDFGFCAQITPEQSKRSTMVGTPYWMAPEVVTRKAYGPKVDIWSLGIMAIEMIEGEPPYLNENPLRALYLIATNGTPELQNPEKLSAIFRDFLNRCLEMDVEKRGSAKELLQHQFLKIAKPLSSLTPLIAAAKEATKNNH
Chain of PAK4 (O96013 whole entry): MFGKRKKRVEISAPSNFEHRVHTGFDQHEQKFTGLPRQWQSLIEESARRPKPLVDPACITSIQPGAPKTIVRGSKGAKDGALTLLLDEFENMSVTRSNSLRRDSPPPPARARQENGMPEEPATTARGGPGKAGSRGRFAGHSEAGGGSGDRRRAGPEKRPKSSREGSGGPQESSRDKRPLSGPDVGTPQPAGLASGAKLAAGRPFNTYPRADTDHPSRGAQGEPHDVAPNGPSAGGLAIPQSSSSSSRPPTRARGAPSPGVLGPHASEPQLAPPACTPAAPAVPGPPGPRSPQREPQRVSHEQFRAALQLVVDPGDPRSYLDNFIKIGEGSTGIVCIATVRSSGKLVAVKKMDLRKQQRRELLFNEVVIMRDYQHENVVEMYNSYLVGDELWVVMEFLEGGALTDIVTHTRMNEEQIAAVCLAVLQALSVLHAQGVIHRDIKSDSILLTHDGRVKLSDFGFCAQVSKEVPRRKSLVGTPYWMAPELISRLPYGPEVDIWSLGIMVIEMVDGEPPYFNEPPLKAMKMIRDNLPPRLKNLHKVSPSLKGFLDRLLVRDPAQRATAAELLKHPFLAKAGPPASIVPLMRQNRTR

Compound: O=c1ccc2cnc(Nc3ccc(OC4CCCNC4)cc3)nc2n1Cc1ccccc1C(F)(F)F (centres unmarked) [compound 70]
- IC50 [1]: < 1000 nM
- IC50 [2]: < 1000 nM

Compound: CN1CCN(c2ccc(Nc3ncc4ccc(=O)n(C5CCOc6ccccc65)c4n3)cc2)CC1 (centres unmarked) [compound 71]
- IC50 [1]: 1000 to 10000 nM
- IC50 [2]: 1000 to 10000 nM

Compound: CN(C)CC(c1ccccc1)n1c(=O)ccc2cnc(Nc3ccc(N4CCOCC4)cc3)nc21 (centres unmarked) [compound 72]
- IC50 [1]: > 10000 nM
- IC50 [2]: > 10000 nM

Compound: CN1CCN(c2ccc(Nc3ncc4ccc(=O)n(C5Cc6ccccc6C5)c4n3)cc2)CC1 [compound 73]
- IC50 [1]: < 1000 nM
- IC50 [2]: < 1000 nM

Compound: CN1CCN(c2ccc(Nc3ncc4ccc(=O)n(C5CCc6ccccc6C5)c4n3)cc2)CC1 (centres unmarked) [compound 74]
- IC50 [1]: < 1000 nM
- IC50 [2]: < 1000 nM

Compound: CN(C)CC(c1ccccc1)n1c(=O)ccc2cnc(Nc3ccc(N4CCN(C)CC4)cc3)nc21 (centres unmarked) [compound 75]
- IC50 [1]: > 10000 nM
- IC50 [2]: > 10000 nM

Compound: O=c1ccc2cnc(Nc3ccc(N4CCNCC4)c(F)c3)nc2n1C1Cc2ccccc2C1 [compound 77]
- IC50 [1]: < 1000 nM
- IC50 [2]: < 1000 nM

Compound: O=c1ccc2cnc(Nc3ccc(N4CCNCC4)c(F)c3)nc2n1C1CCc2ccccc2C1 (centres unmarked) [compound 78]
- IC50 [1]: < 1000 nM
- IC50 [2]: < 1000 nM

Compound: CN1CCN(c2ccc(Nc3ncc4ccc(=O)n(Cc5ccc(F)cc5)c4n3)cc2)CC1 [compound 82]
- IC50 [1]: > 10000 nM
- IC50 [2]: 1000 to 10000 nM

Compound: COc1ccc(Cn2c(=O)ccc3cnc(Nc4ccc(N5CCN(C)CC5)cc4)nc32)cc1 [compound 83]
- IC50 [1]: > 10000 nM
- IC50 [2]: > 10000 nM

Compound: CN1CCN(c2ccc(Nc3ncc4ccc(=O)n(Cc5ccc(Cl)cc5)c4n3)cc2)CC1 [compound 84]
- IC50 [1]: > 10000 nM
- IC50 [2]: 1000 to 10000 nM

Compound: CN1CCN(c2ccc(Nc3ncc4ccc(=O)n(Cc5ccccc5Cl)c4n3)cc2)CC1 [compound 85]
- IC50 [1]: 1000 to 10000 nM
- IC50 [2]: < 1000 nM

Compound: COc1ccccc1Cn1c(=O)ccc2cnc(Nc3ccc(N4CCN(C)CC4)cc3)nc21 [compound 88]
- IC50 [1]: 1000 to 10000 nM
- IC50 [2]: < 1000 nM

Compound: CN1CCN(c2ccc(Nc3ncc4ccc(=O)n(Cc5ccccc5F)c4n3)cc2)CC1 [compound 89]
- IC50 [1]: 1000 to 10000 nM
- IC50 [2]: 1000 to 10000 nM

Compound: CN1CCN(c2ccc(Nc3ncc4ccc(=O)n(Cc5ccccn5)c4n3)cc2)CC1 [compound 90]
- IC50 [1]: 1000 to 10000 nM
- IC50 [2]: 1000 to 10000 nM

Compound: CN1CCN(c2ccc(Nc3ncc4ccc(=O)n(Cc5ccncc5)c4n3)cc2)CC1 [compound 91]
- IC50 [1]: > 10000 nM
- IC50 [2]: 1000 to 10000 nM

Compound: CN1CCN(c2ccc(Nc3ncc4ccc(=O)n(Cc5cccnc5)c4n3)cc2)CC1 [compound 92]
- IC50 [1]: > 10000 nM
- IC50 [2]: 1000 to 10000 nM

Compound: Cc1ccccc1Cn1c(=O)ccc2cnc(Nc3ccc(N4CCN(C)CC4)cc3)nc21 [compound 93]
- IC50 [1]: 1000 to 10000 nM

Compound: CN1CCN(c2ccc(Nc3ncc4ccc(=O)n(Cc5ccccc5C#N)c4n3)cc2)CC1 [compound 94]
- IC50 [1]: 1000 to 10000 nM
- IC50 [2]: < 1000 nM

Compound: CN1CCN(c2ccc(Nc3ncc4ccc(=O)n(Cc5ccccc5OC(F)(F)F)c4n3)cc2)CC1 [compound 95]
- IC50 [1]: 1000 to 10000 nM
- IC50 [2]: < 1000 nM

Compound: CN1CCN(c2ccc(Nc3ncc4ccc(=O)n(Cc5ccccc5C(F)(F)F)c4n3)cc2)CC1 [compound 96]
- IC50 [1]: < 1000 nM
- IC50 [2]: < 1000 nM

Compound: CN1CCN(c2ccc(Nc3ncc4ccc(=O)n(Cc5ccccc5OC(F)F)c4n3)cc2)CC1 [compound 98]
- IC50 [1]: < 1000 nM
- IC50 [2]: < 1000 nM

Compound: Cc1cc(F)ccc1Cn1c(=O)ccc2cnc(Nc3ccc(N4CCN(C)CC4)cc3)nc21 [compound 99]
- IC50 [1]: 1000 to 10000 nM
- IC50 [2]: 1000 to 10000 nM

Compound: Cc1ccc(C)c(Cn2c(=O)ccc3cnc(Nc4ccc(N5CCN(C)CC5)cc4)nc32)c1 [compound 100]
- IC50 [1]: 1000 to 10000 nM
- IC50 [2]: 1000 to 10000 nM
